# Measured values taken from US10086039B2, “Lamin A, an activator of longevity/anti-aging SIRT1 protein” (THE UNIVERSITY OF HONG KONG, priority 2012, dated 2018).
# T1: SIRT1 (Homo sapiens, UniProt Q96EB6)
# T1 sequence (Q96EB6 1-747): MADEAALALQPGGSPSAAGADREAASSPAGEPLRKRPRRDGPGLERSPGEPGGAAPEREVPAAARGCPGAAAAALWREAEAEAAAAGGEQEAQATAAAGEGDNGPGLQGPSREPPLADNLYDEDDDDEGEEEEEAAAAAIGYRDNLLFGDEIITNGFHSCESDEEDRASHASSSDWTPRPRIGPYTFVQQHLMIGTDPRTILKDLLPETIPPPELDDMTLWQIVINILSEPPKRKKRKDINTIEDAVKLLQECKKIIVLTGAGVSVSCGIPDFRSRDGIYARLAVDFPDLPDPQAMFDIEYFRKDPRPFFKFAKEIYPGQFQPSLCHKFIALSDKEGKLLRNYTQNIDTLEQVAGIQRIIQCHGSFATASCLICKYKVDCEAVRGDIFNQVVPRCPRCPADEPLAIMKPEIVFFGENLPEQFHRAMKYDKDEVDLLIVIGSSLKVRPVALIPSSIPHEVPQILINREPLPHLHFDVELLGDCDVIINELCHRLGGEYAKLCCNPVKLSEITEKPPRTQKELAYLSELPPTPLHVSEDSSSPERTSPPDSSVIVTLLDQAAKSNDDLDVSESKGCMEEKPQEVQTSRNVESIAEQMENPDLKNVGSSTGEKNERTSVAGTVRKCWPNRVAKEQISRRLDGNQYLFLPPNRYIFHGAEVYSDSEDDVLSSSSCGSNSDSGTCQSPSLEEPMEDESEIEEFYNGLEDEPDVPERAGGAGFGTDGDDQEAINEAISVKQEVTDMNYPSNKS
# T2: rhSIRT1 binding to rhLamin A (Homo sapiens, UniProt Q96EB6)
# T2 construct: purchased Diatheva, Italy (rhLamin A)
# T2 sequence (Q96EB6 1-747): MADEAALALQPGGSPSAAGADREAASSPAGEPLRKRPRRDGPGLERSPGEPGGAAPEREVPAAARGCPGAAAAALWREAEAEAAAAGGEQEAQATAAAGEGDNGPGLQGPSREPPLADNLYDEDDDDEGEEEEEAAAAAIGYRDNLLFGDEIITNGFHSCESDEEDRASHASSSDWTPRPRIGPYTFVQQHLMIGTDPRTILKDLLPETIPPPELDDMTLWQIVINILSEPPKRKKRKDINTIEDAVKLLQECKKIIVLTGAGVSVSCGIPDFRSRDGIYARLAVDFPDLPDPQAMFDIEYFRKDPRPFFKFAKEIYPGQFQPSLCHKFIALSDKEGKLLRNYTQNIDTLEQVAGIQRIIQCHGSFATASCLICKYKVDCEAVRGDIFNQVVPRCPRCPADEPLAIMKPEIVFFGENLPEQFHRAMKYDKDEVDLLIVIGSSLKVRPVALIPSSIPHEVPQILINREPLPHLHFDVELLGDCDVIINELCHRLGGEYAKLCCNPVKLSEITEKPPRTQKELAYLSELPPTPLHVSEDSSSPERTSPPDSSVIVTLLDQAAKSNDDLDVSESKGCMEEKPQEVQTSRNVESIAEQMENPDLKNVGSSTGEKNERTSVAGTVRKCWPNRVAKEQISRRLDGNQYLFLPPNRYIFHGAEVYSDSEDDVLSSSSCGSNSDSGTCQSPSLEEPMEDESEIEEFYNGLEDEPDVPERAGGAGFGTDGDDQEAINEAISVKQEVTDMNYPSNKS
# T2 sequence (P02545 1-664 partner): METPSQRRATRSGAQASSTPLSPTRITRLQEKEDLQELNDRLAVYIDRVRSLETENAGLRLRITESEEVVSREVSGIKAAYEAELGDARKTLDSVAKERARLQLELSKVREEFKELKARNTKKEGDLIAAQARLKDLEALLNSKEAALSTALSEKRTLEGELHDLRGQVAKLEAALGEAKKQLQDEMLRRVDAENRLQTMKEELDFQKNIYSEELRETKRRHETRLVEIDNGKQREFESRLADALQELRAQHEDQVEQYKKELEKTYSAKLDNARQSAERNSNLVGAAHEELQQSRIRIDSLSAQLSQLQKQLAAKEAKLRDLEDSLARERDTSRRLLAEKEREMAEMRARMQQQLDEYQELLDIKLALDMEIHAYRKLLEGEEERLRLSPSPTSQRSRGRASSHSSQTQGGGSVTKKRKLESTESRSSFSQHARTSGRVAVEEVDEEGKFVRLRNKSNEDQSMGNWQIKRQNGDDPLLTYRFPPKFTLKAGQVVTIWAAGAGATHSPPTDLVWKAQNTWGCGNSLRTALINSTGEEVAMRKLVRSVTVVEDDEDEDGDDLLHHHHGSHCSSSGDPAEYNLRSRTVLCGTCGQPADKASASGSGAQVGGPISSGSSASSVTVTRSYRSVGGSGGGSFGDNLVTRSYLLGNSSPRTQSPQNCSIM
# B1: rhLamin A: recombinant human lamin A (rhLamin A, Diatheva, Italy) (protein, listed as Homo sapiens)
# chain: METPSQRRATRSGAQASSTPLSPTRITRLQEKEDLQELNDRLAVYIDRVRSLETENAGLRLRITESEEVVSREVSGIKAAYEAELGDARKTLDSVAKERARLQLELSKVREEFKELKARNTKKEGDLIAAQARLKDLEALLNSKEAALSTALSEKRTLEGELHDLRGQVAKLEAALGEAKKQLQDEMLRRVDAENRLQTMKEELDFQKNIYSEELRETKRRHETRLVEIDNGKQREFESRLADALQELRAQHEDQVEQYKKELEKTYSAKLDNARQSAERNSNLVGAAHEELQQSRIRIDSLSAQLSQLQKQLAAKEAKLRDLEDSLARERDTSRRLLAEKEREMAEMRARMQQQLDEYQELLDIKLALDMEIHAYRKLLEGEEERLRLSPSPTSQRSRGRASSHSSQTQGGGSVTKKRKLESTESRSSFSQHARTSGRVAVEEVDEEGKFVRLRNKSNEDQSMGNWQIKRQNGDDPLLTYRFPPKFTLKAGQVVTIWAAGAGATHSPPTDLVWKAQNTWGCGNSLRTALINSTGEEVAMRKLVRSVTVVEDDEDEDGDDLLHHHHGSHCSSSGDPAEYNLRSRTVLCGTCGQPADKASASGSGAQVGGPISSGSSASSVTVTRSYRSVGGSGGGSFGDNLVTRSYLLGNSSPRTQSPQNCSIM
# B2: LA-80: synthetic peptide of carboxyl 80 aa of lamin A (peptide)
# peptide: GSHCSSSGDPAEYNLRSRTVLCGTCGQPADKASASGSGAQVGGPISSGSSASSVTVTRSYRSVGGSGGGSFGDNLVTRSY
# Tests used:
# Zmpste24−/− mice [1] = assay: Survival and body weight of Zmpste24−/− mice treated via drinking water; assay type: in vivo, mouse; details: NAC 1 mg/ml in drinking water
# Experimental: (§1) Zmpste24^−/− mice have been described previously (Pendas et al., 2002). Mouse experimentation was performed in accordance with the guidelines of the Committee on the Use of Live Animals in Teaching and Research (CULATR) at the University of Hong Kong. New-born Zmpste24^−/− mice and wild-type controls were fed with resveratrol (20 μg/ml) or N-acetyl Cysteine (1 mg/ml) in drinking water. The survival of resveratrol-treated, NAC-treated, or vehicle-treated Zmpste24^−/− mice was recorded and their body weight was monitored weekly. The trabecular bone organization and bone mineral density were determined by micro-CT. The survival rate was analyzed by Kaplan-Meier method and statistical comparison was performed by Log-rank (Mantel-Cox) Test.
# Briefly, resveratrol was supplemented at a concentration of 20 μg/ml in drinking water. Four months after treatment, BMSCs were collected for examination and comparison between resveratrol-treated and vehicle-treated Zmpste24^−/− mice.
# Zmpste24−/− mice [2] = assay: BMSC colony-forming efficiency after in vivo treatment of Zmpste24−/− mice; parameters: species or system mouse; details: NAC 1 mg/ml in drinking water
# Experimental: as §1
# Bone marrow stromal cells were isolated and cultured according to modified protocol (Enumeration and Expansion of Mouse Mesenchymal Progenitor Cells Using MESENCUILT®, Stemcell Technologies, Canada). Briefly, bone marrow cells were flushed out from femurs and tibias with α-MEM (Invitrogen, Carlsbad, Calif., USA) supplemented with 20% FBS, and plated in petri dishes. Non-adherent cells were removed on day 3 and medium was replaced every 3 days. […] Colonies containing more than 50 cells were counted. BMSC colony forming efficiency was calculated as number of colonies formed by […] bone marrow nucleated cells. […]
# Zmpste24−/− mice [3] = assay: HSC population in bone marrow of treated Zmpste24−/− mice (FACS); assay type: in vivo, mouse; details: NAC 1 mg/ml in drinking water
# Experimental: as §1, with “Zmpste24^-/-” for “Zmpste24^−/−”, “([…]” for “(Pendas”, “Test. To analyze hematopoietic stem cells, mononucleated cells were collected by flushing femurs and tibias with staining medium (HBSS supplemented with 2% FBS) and stained with biotin-coupled lineage markers, Biotin-Flt3, PE-Sca-1, APC-c-Kit, and then SAv-PerCP. FACS profile analyses were performed using a BD FACSCalibur.” for “Test.”
# Zmpste24−/− HSCs = assay: ROS level in freshly isolated HSCs (DCF-DA, FACS); assay type: in vivo, mouse; details: NAC 1 mg/ml in drinking water; elevated in Zmpste24−/− HSCs
# Experimental: as §1
# To purify HSCs, red blood cells were lysed using NH4Cl before surface-marker staining, and HSCs were then sorted with a BD FACSVantage SE. Sorted HSCs were incubated with 5 μM DCF-DA at 37° C. for 30 min and analyzed by FACS at 488-nm excitation and 525-nm emission to determine the ROS level.
# SIRT1 [4] = biological target: T1, SIRT1; assay: BIOMOL SIRT1 Fluorimetric Drug Discovery Kit (BSDK) deacetylase assay on fluorophore-conjugated acetyl p53 peptide; assay type: biochemical; parameters: purchased Biomol (Hamburg, Germany)
# Experimental: (§2) SIRT1 deacetylation assay on fluorophore-conjugated synthetic p53 peptide was performed with SIRT1 Fluorimetric Drug Discovery Kit (Biomol, Hamburg, Germany) according to the manufactory's instruction. Cells were fractionated as described above except that protease inhibitors were NOT included and the nuclear matrix fraction was suspended into the assay buffer provided by the supplier. Different cell fractions or recombinant human lamin A (rhLamin A, Diatheva, Italy) were added in the reaction mix of SIRT1 Fluorimetric Drug Discovery Kit, incubated for 20 min at 37° C., and then the reaction was stopped and fluorescent signal was detected. SIRT1 deacetylase activity on native target was assayed using SIRT1 assay Kit from Sigma (USA). Constructs encoding FLAG-p53 and HA-p300 were co-transfected into HEK293 cells; FLAG-p53 was immunoprecipitated by anti-FLAG M2 Agarose (Sigma) followed by elution with FLAG peptide (Sigma). Purified acetyl FLAG-p53 was incubated with recombinant human SIRT1 (rhSIRT1) and NAD+ for 30 min at 37° C., in the presence or absence of rhLamin A or resveratrol. The acetylation level of FLAG-p53 was determined by Western blotting with pan anti acetyl lysine antibodies.
# To test this hypothesis, in vitro deacetylase activity of rhSIRT1 by a BIOMOL® SIRT1 Fluorimetric Drug Discovery Kit (BSDK) was quantified in the presence or absence of NM derived from wild-type or Zmpste24−/− BMSCs.
# This Example further investigates whether lamin A acts as an activator of SIRT1. In mammalian cells, lysine acetyltransferase p300 and SIRT1 mediate the acetylation and deacetylation of p53 on residue K382 (Gu and Roeder, 1997). BSDK utilizes fluorophore-conjugated acetyl p53 peptide as target (see Materials and Methods).
# SIRT1 [5] = biological target: T1, SIRT1; details: Beher 2009; Dai 2010; Pacholec 2010; cited from earlier work
# [6] = biological target: T2, rhSIRT1 binding to rhLamin A; assay: Pull-down of rhSIRT1 with rhLamin A in test tube (anti-lamin A immunoprecipitation); details: in a test tube
# Experimental: For co-immunoprecipitation, cells were lysed into pre-chilled RIPA buffer containing 300 mM or 500 mM NaCl and protease inhibitors. Primary antibodies or appropriate control IgGs were added to the lysate and incubated for 2 h on a rocking platform at 4° C. before Agarose beads were added and incubated O/N. The beads were washed twice with RIPA buffer, resuspended into Laemmli buffer and boiled, and protein suspension was collected by centrifugation and stored for further analysis.
# Consistently, ectopic EGFP-SIRT1 and DsRed-lamin A co-existed in the nuclear interior (FIG. 1D). This interaction seems specific to nuclear SIRT1 as neither cytoplasmic SIRT1 nor mitochondrial SIRT5 was detected in the anti GFP-lamin A immunoprecipitates (FIG. 6C). In addition, SIRT1 physically interacts with lamin A as recombinant human SIRT1 (rhSIRT1) was pulled down by recombinant human lamin A (rhLamin A) in a test tube (FIG. 1E).
# SIRT1 [7] = biological target: T1, SIRT1; assay: SIRT1 deacetylation assay on native full-length acetyl FLAG-p53 (Western blotting, anti-acetyl lysine); assay type: biochemical; parameters: purchased Biomol (Hamburg, Germany)
# Experimental: as §2
# To further test the effect of rhLamin A on the native target of SIRT1, acetyl p53 was purified by anti-FLAG immunoprecipitation in HEK293 cells ectopically expressing FLAG-p53 and p300, and SIRT1 deacetylation assay was performed as described in Materials and Methods.
molecule,measurement,setting,value
CC(=O)N[C@@H](CS)C(=O)O [N-acetyl Cysteine],lifespan,Zmpste24−/− mice [1],extended lifespan to a similar extent as resveratrol did
same,decline in BMSCs,Zmpste24−/− mice [2],rescued
same,decline in HSCs,Zmpste24−/− mice [3],rescued
same,ROS level in HSCs,Zmpste24−/− HSCs,rescued ROS level
Cc1ccc(C(=O)Nc2ccc(S(=O)(=O)O)c3cc(S(=O)(=O)O)cc(S(=O)(=O)O)c23)cc1NC(=O)c1cccc(NC(=O)Nc2cccc(C(=O)Nc3cc(C(=O)Nc4ccc(S(=O)(=O)O)c5cc(S(=O)(=O)O)cc(S(=O)(=O)O)c45)ccc3C)c2)c1 [Suramin],Lamin A-stimulated SIRT1 deacetylase activity,SIRT1 [4]; SIRT1 inhibitor added,completely abolished
O=C(Nc1ccccc1-c1cn2c(CN3CCNCC3)csc2n1)c1cnc2ccccc2n1 [SRT1720],"SIRT1 activation towards full-length native target proteins, including p53 and PGC-1α",SIRT1 [5],do not confer any SIRT1 activation
B1,rhSIRT1 pulled down by rhLamin A,[6],pulled down
same,deacetylase activity of rhSIRT1 on acetyl p53 peptide,"SIRT1 [4]; in the presence of rhLamin A, molar ratio rhLamin A to rhSIRT1 0.5, 1.0, 2.0, 4.0",increased in a dose-dependent manner
same,decrease in FLAG-p53 acetylation level,SIRT1 [7]; rhLamin A-rhSIRT1 complex compared with rhSIRT1 only,around 20%
B2,activating potential on SIRT1 towards fluorophore-conjugated synthetic peptide (Ac-Arg-His-Lys-LysAc-AMC),SIRT1 [4]; compared with lamin A,much higher activating potential
same,activating potential on SIRT1 towards full-length acetylated FLAG-p53 protein,SIRT1 [7]; compared with lamin A,much higher activating potential
